Data published in US11622991B2, “Protocol for treatment of lupus nephritis” (Aurinia Pharmaceuticals Inc., priority 2017, dated 2023).

Test system: lupus nephritis
Assay: Predictability of week 48 partial remission from early reduction in UPCR (Tables 4-8)
Assay type: in vivo, human
Experimental: In the study reported in Example 1, the predictability of outcomes based on markers at early time points were determined.
This is important because it is undesirable to subject a patient to unnecessary treatment, even if the treatment is relatively safe.
PR is defined as at least 50% reduction in proteinuria (i.e. UPCR).
Sensitivity is defined as the probability that a subject showing PR at 48 weeks would have shown a favorable result with regard to the marker at the designated early time point. In the tables below, this is the ratio of the number of subjects with favorable marker results (early drop or normalization) to the total subjects with 48 week PR.
Specificity is defined as the probability that a subject not showing PR at 48 weeks would have shown an unfavorable result with regard to the marker at the designated early time point. In the tables below, this is the ratio of the number of subjects with unfavorable marker results (no early drop or no normalization) to the total subjects with no 48 week PR.
Positive predictive value is defined as the probability that a subject showing a favorable result with respect to the marker at an earlier time point would show PR at 48 weeks. In the tables below, this is the ratio of the number of subjects with favorable marker results who have 48 week PR to those with favorable marker results (early reduction or yes column).
Negative predictive value is defined as the probability that a subject showing an unfavorable result with respect to the marker at an earlier time point would not show PR at 48 weeks. In the tables below, this is the ratio of the number of subjects with unfavorable marker results who have no PR at 48 weeks to the total subjects with unfavorable marker results (no early reduction or no column).

[1] = 25% reduction in UPCR, Week 26, 23.7 mg BID
[2] = 25% reduction in UPCR, Week 26, 39.5 mg BID
[3] = 25% reduction in UPCR, Week 36, 23.7 mg BID
[4] = 25% reduction in UPCR, Week 36, 39.5 mg BID
[5] = 25% reduction in UPCR, Week 48, 23.7 mg BID
[6] = 25% reduction in UPCR, Week 48, 39.5 mg BID
[7] = early 30% reduction in UPCR, week 2, 39.5 mg BID
[8] = early 30% reduction in UPCR, week 6, 23.7 mg BID
[9] = early 30% reduction in UPCR, week 8, 23.7 mg BID
[10] = early 30% reduction in UPCR, week 8, 39.5 mg BID
[11] = early 30% reduction in UPCR, week 12, 39.5 mg BID
[12] = early 30% reduction in UPCR, week 16, 23.7 mg BID
[13] = early 30% reduction in UPCR, week 16, 39.5 mg BID
[14] = early 30% reduction in UPCR, week 20, 23.7 mg BID
[15] = early 30% reduction in UPCR, week 24, 23.7 mg BID
[16] = early 30% reduction in UPCR, week 24, 39.5 mg BID
[17] = early 30% reduction in UPCR, week 26, 23.7 mg BID
[18] = early 30% reduction in UPCR, week 26, 39.5 mg BID
[19] = early 30% reduction in UPCR, week 36, 23.7 mg BID
[20] = early 30% reduction in UPCR, week 36, 39.5 mg BID
[21] = early 30% reduction in UPCR, week 48, 23.7 mg BID
[22] = early 30% reduction in UPCR, week 48, 39.5 mg BID
[23] = early 35% reduction in UPCR, week 2, 39.5 mg BID
[24] = early 35% reduction in UPCR, week 6, 23.7 mg BID
[25] = early 35% reduction in UPCR, week 8, 23.7 mg BID
[26] = early 35% reduction in UPCR, week 8, 39.5 mg BID
[27] = early 35% reduction in UPCR, week 12, 23.7 mg BID
[28] = early 35% reduction in UPCR, week 12, 39.5 mg BID
[29] = early 35% reduction in UPCR, week 16, 23.7 mg BID
[30] = early 35% reduction in UPCR, week 16, 39.5 mg BID
[31] = early 35% reduction in UPCR, week 20, 23.7 mg BID
[32] = early 35% reduction in UPCR, week 24, 23.7 mg BID
[33] = early 35% reduction in UPCR, week 24, 39.5 mg BID
[34] = early 35% reduction in UPCR, week 26, 23.7 mg BID
[35] = early 35% reduction in UPCR, week 26, 39.5 mg BID
[36] = early 35% reduction in UPCR, week 36, 23.7 mg BID
[37] = early 35% reduction in UPCR, week 36, 39.5 mg BID
[38] = early 35% reduction in UPCR, week 48, 23.7 mg BID

C=C/C=C/C[C@@H](C)[C@@H](O)[C@H]1C(=O)N[C@@H](CC)C(=O)N(C)CC(=O)N(C)[C@@H](CC(C)C)C(=O)N[C@@H](C(C)C)C(=O)N(C)[C@@H](CC(C)C)C(=O)N[C@@H](C)C(=O)N[C@H](C)C(=O)N(C)[C@@H](CC(C)C)C(=O)N(C)[C@@H](CC(C)C)C(=O)N(C)[C@@H](C(C)C)C(=O)N1C [voclosporin]
No Week 48 Partial Remission Early Drop [1]: 8 | No Week 48 Partial Remission No Early Drop [1]: 4 | No Week 48 Partial Remission No Early Drop [2]: 4 | Week 48 Partial Remission No Early Drop [2]: 1 | Early Reduction No [3]: 4 | No Week 48 Partial Remission Early Drop [3]: 10 | No Week 48 Partial Remission No Early Drop [3]: 3 | Week 48 Partial Remission No Early Drop [3]: 1 | Early Reduction No [4]: 8 | Week 48 Partial Remission No Early Drop [4]: 2 | Early Reduction No [5]: 2 | No Week 48 Partial Remission Early Drop [5]: 9 | No Week 48 Partial Remission No Early Drop [5]: 2 | Early Reduction No [6]: 9 | No Week 48 Partial Remission Early Drop [6]: 7 | No Week 48 Partial Remission No Early Drop [6]: 9 | No Week 48 Partial Remission Early Drop [7]: 11 | Week 48 Partial Remission Early Drop [7]: 31 | Week 48 Partial Remission No Early Drop [7]: 29 | No Week 48 Partial Remission Early Drop (early 30% reduction in UPCR, week 4, 23.7 mg BID): 11 | Week 48 Partial Remission No Early Drop (early 30% reduction in UPCR, week 4, 39.5 mg BID): 16 | No Week 48 Partial Remission Early Drop [8]: 10 | No Week 48 Partial Remission No Early Drop [8]: 8 | Week 48 Partial Remission No Early Drop [8]: 10 | Week 48 Partial Remission No Early Drop (early 30% reduction in UPCR, week 6, 39.5 mg BID): 16 | No Week 48 Partial Remission Early Drop [9]: 10 | No Week 48 Partial Remission No Early Drop [9]: 9 | Week 48 Partial Remission No Early Drop [9]: 7 | Early Reduction No [10]: 11 | No Week 48 Partial Remission No Early Drop [10]: 4 | Week 48 Partial Remission No Early Drop [10]: 7 | No Week 48 Partial Remission No Early Drop (early 30% reduction in UPCR, week 12, 23.7 mg BID): 7 | Early Reduction No [11]: 11 | No Week 48 Partial Remission No Early Drop [11]: 4 | Week 48 Partial Remission No Early Drop [11]: 7 | Early Reduction No [12]: 10 | No Week 48 Partial Remission Early Drop [12]: 11 | No Week 48 Partial Remission No Early Drop [12]: 7 | Week 48 Partial Remission No Early Drop [12]: 3 | No Week 48 Partial Remission No Early Drop [13]: 7 | Week 48 Partial Remission No Early Drop [13]: 8 | Early Reduction No [14]: 10 | No Week 48 Partial Remission Early Drop [14]: 9 | No Week 48 Partial Remission No Early Drop [14]: 7 | Week 48 Partial Remission No Early Drop [14]: 3 | Early Reduction No (early 30% reduction in UPCR, week 20, 39.5 mg BID): 10 | Early Reduction No [15]: 4 | No Week 48 Partial Remission Early Drop [15]: 11 | No Week 48 Partial Remission No Early Drop [15]: 3 | Week 48 Partial Remission No Early Drop [15]: 1 | No Week 48 Partial Remission No Early Drop [16]: 7 | Week 48 Partial Remission No Early Drop [16]: 9 | No Week 48 Partial Remission Early Drop [17]: 7 | Week 48 Partial Remission No Early Drop [17]: 1 | Early Reduction No [18]: 8 | No Week 48 Partial Remission Early Drop [18]: 11 | Week 48 Partial Remission No Early Drop [18]: 3 | Early Reduction No [19]: 4 | No Week 48 Partial Remission Early Drop [19]: 10 | No Week 48 Partial Remission No Early Drop [19]: 3 | Week 48 Partial Remission No Early Drop [19]: 1 | Early Reduction No [20]: 9 | No Week 48 Partial Remission Early Drop [20]: 11 | No Week 48 Partial Remission No Early Drop [20]: 7 | Week 48 Partial Remission No Early Drop [20]: 2 | Early Reduction No [21]: 3 | No Week 48 Partial Remission Early Drop [21]: 8 | No Week 48 Partial Remission No Early Drop [21]: 3 | Early Reduction No [22]: 11 | No Week 48 Partial Remission No Early Drop [22]: 11 | Early Reduction Yes [23]: 39 | No Week 48 Partial Remission Early Drop [23]: 11 | Week 48 Partial Remission No Early Drop [23]: 32 | No Week 48 Partial Remission Early Drop (early 35% reduction in UPCR, week 4, 23.7 mg BID): 11 | No Week 48 Partial Remission No Early Drop (early 35% reduction in UPCR, week 4, 39.5 mg BID): 8 | No Week 48 Partial Remission Early Drop [24]: 9 | No Week 48 Partial Remission No Early Drop [24]: 9 | Week 48 Partial Remission No Early Drop (early 35% reduction in UPCR, week 6, 39.5 mg BID): 16 | No Week 48 Partial Remission Early Drop [25]: 9 | No Week 48 Partial Remission No Early Drop [25]: 10 | Week 48 Partial Remission No Early Drop [25]: 8 | No Week 48 Partial Remission No Early Drop [26]: 4 | Week 48 Partial Remission No Early Drop [26]: 8 | No Week 48 Partial Remission Early Drop [27]: 10 | No Week 48 Partial Remission No Early Drop [27]: 9 | Week 48 Partial Remission No Early Drop [27]: 7 | No Week 48 Partial Remission No Early Drop [28]: 4 | Week 48 Partial Remission No Early Drop [28]: 10 | Early Reduction No [29]: 11 | No Week 48 Partial Remission Early Drop [29]: 11 | No Week 48 Partial Remission No Early Drop [29]: 7 | Week 48 Partial Remission No Early Drop [29]: 4 | No Week 48 Partial Remission No Early Drop [30]: 7 | Week 48 Partial Remission No Early Drop [30]: 8 | Early Reduction No [31]: 11 | No Week 48 Partial Remission Early Drop [31]: 8 | No Week 48 Partial Remission No Early Drop [31]: 8 | Week 48 Partial Remission No Early Drop [31]: 3 | Early Reduction No (early 35% reduction in UPCR, week 20, 39.5 mg BID): 11 | Early Reduction No [32]: 7 | No Week 48 Partial Remission Early Drop [32]: 8 | Week 48 Partial Remission No Early Drop [32]: 1 | No Week 48 Partial Remission No Early Drop [33]: 7 | Week 48 Partial Remission No Early Drop [33]: 9 | Early Reduction No [34]: 8 | No Week 48 Partial Remission Early Drop [34]: 7 | Week 48 Partial Remission No Early Drop [34]: 3 | Early Reduction No [35]: 11 | No Week 48 Partial Remission Early Drop [35]: 11 | No Week 48 Partial Remission Early Drop [36]: 9 | No Week 48 Partial Remission No Early Drop [36]: 4 | Week 48 Partial Remission No Early Drop [36]: 1 | Early Reduction No [37]: 9 | No Week 48 Partial Remission Early Drop [37]: 11 | No Week 48 Partial Remission No Early Drop [37]: 7 | Week 48 Partial Remission No Early Drop [37]: 2 | Early Reduction No [38]: 4 | No Week 48 Partial Remission Early Drop [38]: 7 | No Week 48 Partial Remission No Early Drop [38]: 4 | No Week 48 Partial Remission Early Drop (early 35% reduction in UPCR, week 48, 39.5 mg BID): 4
